Reference: patent publication US20230322756A1, “FUSED IMIDAZOLE DERIVATIVE, PREPARATION METHOD THEREFOR, AND MEDICAL USE THEREOF” (JIANGSU HENGRUI MEDICINE CO., LTD., priority 2020, published 2023)

Legend:
GLP-1 receptor = GLP-1 receptor (Homo sapiens (Human), UniProt P43220); experiment: Agonist activity against GLP-1 receptor, CRE-luciferase reporter (ONE-Glo) in CHO-K1/CRE-luc/GLP-1 receptor cells; type: cell-based; conditions: 6 h incubation
Description: This experiment was intended to test the agonist activity of the compound molecules against the GLP-1 receptor and evaluate the in vitro activity of the molecules according to EC50. The experiment adopted a ONE-Glo™ Luciferase Assay System (Promega, E6110). Under the action of compound molecules, GLP-1R downstream signaling pathways were activated to cause elevated cAMP level. The combination of cAMP and CRE could start the transcription expression of CRE downstream luciferase genes, the luciferase could emit fluorescence when reacting with substrates thereof, and the activity of the compound for agonizing GLP-1 receptors was reflected by measuring fluorescence signals through a ONE-Glo™ reagent.
Stably-expressed CHO-K1/CRE-luc/GLP-1 receptor cell strains (self-construction of GLP-1 receptor plasmid; CRE-luc plasmid Promega E8471) were constructed. CHO-K1/CRE-luc/GLP-1 receptor cells were digested, and resuspended after centrifugation. […] The plate was incubated in an incubator for 16 h (37° C., 5% CO2).
The compound was dissolved in DMSO to prepare a stock solution with an initial concentration of 20 mM. The starting concentration of the small molecule compound was 0.2 mM, and the compound underwent 3-fold serial dilution for a total of 10 concentration points, with DMSO at the 11th point. To another 96-well plate was added 95 μL of cell culture medium (DME/F-12+10% FBS), 5 μL of test samples with different concentrations were added to each well, followed by uniform mixing, and then 10 μL of test samples with different concentrations were added to each well, with two duplicate wells set for each sample. The plate was incubated in an incubator for 6 h (37° C., 5% CO2). The 96-well cell culture plate was taken out, and 100 μL of ONE-Glo™ reagent was added to each well, followed by incubation at room temperature for 10 min. The plate was placed in a microplate reader (EnVision 2105, PE) for determination of chemiluminescence.
Data were processed and analyzed using Microsoft Excel and Graphpad Prism 5.

hERG potassium channel = hERG potassium channel (Homo sapiens (Human), UniProt Q12809); experiment: Blocking effect on hERG potassium currents, manual patch-clamp in CHO cells stably expressing hERG channel; type: cell-based; conditions: read-out: IC50 for the blocking effect on the hERG potassium ion channel
Description: This example is intended to assess the blocking effect of the compounds of the present disclosure and positive compound 1 (see the compound of Example 7 on page 125 of WO2019239319A1) on hERG potassium currents in a stable cell strain transfected with an hERG potassium channel by a manual patch-clamp assay. The structure of positive compound 1 is shown below:
The cells used in this experiment were from a CHO cell line (provided by Sophion Bioscience, Denmark) transfected with hERG cDNA and stably expressing hERG channel at cell passage number of P5. Cells were cultured in a medium containing the following components (all from Invitrogen): Ham's F12 medium, 10% (v/v) inactivated fetal bovine serum, 100 μg/mL hygromycin B, and 100 μg/mL geneticin.
CHO hERG cells were grown in a culture dish containing the above culture medium and cultured in an incubator at 37° C. with 5% CO2. 24-48 h before the electrophysiological experiment, CHO hERG cells were transferred to round slides placed in the culture dish and grown in the same culture medium and culture conditions as above. The density of CHO hERG cells on each round slide was required to achieve the requirement that most cells were independent and individual.
In this experiment, a manual patch-clamp system (HEKA EPC-10 signal amplifier and digital conversion system, purchased from HEKA Electronics, Germany) was used for whole cell current recording. Round slides with CHO hERG cells grown on the surface were placed in an electrophysiological recording chamber under an inverted microscope. The chamber was continuously perfused with extracellular fluid (approximately 1 mL/min). The experimental procedures were performed by conventional whole-cell patch-clamp current recording technology. Unless otherwise stated, the experiment was performed at room temperature ([…]). The cells were clamped at a voltage of −80 mV. The cell clamp voltage was depolarized to +20 mV to activate the hERG potassium channel, and then clamped to −50 mV 5 s later to eliminate inactivation and generate tail currents. The tail current peak was used as a value for the numeral value of the hERG current. After the hERG potassium currents recorded in the above step were stable under the continuous extracellular fluid perfusion in the recording chamber, the drug to be tested could be added for perfusion until the inhibitory effect of the drug on the hERG current reached a stable state. Generally, the last superposition of 3 consecutive current recording lines is used as a criterion for determining whether a stable state is reached. […]
The experimental data were analyzed by data analysis software supplied by HEKA Patchmaster(V2x73.2), Microsoft Excel, and Graphpad Prism 5.0. […]

Chain of GLP-1 receptor (P43220 24-463): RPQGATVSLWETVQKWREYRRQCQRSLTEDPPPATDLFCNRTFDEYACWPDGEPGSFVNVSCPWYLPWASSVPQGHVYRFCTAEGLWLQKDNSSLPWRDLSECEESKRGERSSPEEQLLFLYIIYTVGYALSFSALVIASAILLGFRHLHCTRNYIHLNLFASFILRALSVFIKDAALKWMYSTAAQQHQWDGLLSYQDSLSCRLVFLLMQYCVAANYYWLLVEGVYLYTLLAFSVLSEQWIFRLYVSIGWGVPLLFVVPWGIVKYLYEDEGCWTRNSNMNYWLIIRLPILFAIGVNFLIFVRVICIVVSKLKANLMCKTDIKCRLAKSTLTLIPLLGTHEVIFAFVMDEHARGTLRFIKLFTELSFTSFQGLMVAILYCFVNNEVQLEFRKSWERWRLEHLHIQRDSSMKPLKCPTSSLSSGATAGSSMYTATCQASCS
Chain of hERG potassium channel (Q12809 whole entry): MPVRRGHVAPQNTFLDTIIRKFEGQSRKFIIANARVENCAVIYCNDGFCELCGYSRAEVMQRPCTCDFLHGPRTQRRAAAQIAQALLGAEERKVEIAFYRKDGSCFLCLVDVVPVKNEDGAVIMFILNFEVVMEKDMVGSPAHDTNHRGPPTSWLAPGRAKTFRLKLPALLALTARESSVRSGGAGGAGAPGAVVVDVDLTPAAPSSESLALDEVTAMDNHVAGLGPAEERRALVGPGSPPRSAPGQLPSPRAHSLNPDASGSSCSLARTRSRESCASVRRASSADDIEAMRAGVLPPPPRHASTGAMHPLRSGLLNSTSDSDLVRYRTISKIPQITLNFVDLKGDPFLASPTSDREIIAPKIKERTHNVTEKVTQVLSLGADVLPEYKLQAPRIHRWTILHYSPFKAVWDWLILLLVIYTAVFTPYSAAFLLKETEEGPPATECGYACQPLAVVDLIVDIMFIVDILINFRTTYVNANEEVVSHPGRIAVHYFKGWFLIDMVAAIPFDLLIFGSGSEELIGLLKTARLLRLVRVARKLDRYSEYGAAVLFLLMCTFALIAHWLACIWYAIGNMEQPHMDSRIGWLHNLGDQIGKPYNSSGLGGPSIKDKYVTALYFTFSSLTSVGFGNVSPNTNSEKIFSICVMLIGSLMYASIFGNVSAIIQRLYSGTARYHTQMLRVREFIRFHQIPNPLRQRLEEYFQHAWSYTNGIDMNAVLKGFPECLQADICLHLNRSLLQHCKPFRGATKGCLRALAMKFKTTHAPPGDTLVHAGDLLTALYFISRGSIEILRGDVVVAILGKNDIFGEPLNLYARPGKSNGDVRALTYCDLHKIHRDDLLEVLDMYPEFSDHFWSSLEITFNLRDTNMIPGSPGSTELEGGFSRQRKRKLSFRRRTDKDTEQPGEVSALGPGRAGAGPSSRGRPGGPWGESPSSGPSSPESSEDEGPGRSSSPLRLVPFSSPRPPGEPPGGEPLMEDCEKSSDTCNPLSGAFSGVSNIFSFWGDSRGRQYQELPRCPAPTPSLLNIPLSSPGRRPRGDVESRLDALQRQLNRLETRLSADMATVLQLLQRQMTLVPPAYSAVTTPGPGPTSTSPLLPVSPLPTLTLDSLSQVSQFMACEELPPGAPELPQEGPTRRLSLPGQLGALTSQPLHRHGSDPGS

Structure (SMILES) | EC50 (GLP-1 receptor) [nM] | Emax (GLP-1 receptor) [%] | IC50 (hERG potassium channel) [nM]
CC1(c2ccc(Cl)cc2F)COc2cccc(C3CCN(Cc4nc5ccc(C(=O)O)cc5n4C[C@@H]4CCO4)CC3)c2O1 (stereo partly drawn) [Example 20, 2-((4-(3-(4-Chloro-2-fluorophenyl)-3-methyl-2,3-dihydrobenzo[b][1,4]dioxan-5-yl)piperidin-1-yl)methyl)-1-(((S)-oxetan-2-yl)methyl)-1H-benzo[d]imidazole-6-carboxylic acid] | 51 | 90 | 
O=C(O)c1ccc2nc(CN3CC=C(c4cccc5c4OC(c4ccc(Cl)cc4F)CO5)CC3)n(C[C@@H]3CCO3)c2c1 (some centres unmarked) [Example 17] | 9.9 | 112 | 
O=C(O)c1ccc2nc(CN3CCC(c4cccc5c4OC[C@@H](c4nc6ccccc6s4)O5)CC3)n(C[C@@H]3CCO3)c2c1 [Example 11, 2-((4-((S)-2-(Benzo[d]thiazol-2-yl)-2,3-dihydrobenzo[b][1,4]dioxan-5-yl)piperidin-1-yl)methyl)-1-(((S)-oxetan-2-yl)methyl)-1H-benzo[d]imidazole-6-carboxylic acid] | 1.68 | 104 | 
CC1(c2ccc(Cl)cc2F)COc2c(cccc2C2CCN(Cc3nc4ccc(C(=O)O)cc4n3C[C@@H]3CCO3)CC2)O1 (stereo partly drawn) [Example 18, 2-((4-(2-(4-Chloro-2-fluorophenyl)-2-methyl-2,3-dihydrobenzo[b][1,4]dioxan-5-yl)piperidin-1-yl)methyl)-1-(((S)-oxetan-2-yl)methyl)-1H-benzo[d]imidazole-6-carboxylic acid] | 18.4 | 103 | 
O=C(O)c1ccc2nc(CN3CCC(c4cccc5c4OC(c4ccc(Cl)cc4F)CO5)CC3)n(C[C@@H]3CCO3)c2n1 (stereo partly drawn) [Example 12, 2-((4-(3-(4-Chloro-2-fluorophenyl)-2,3-dihydrobenzo[b][1,4]dioxan-5-yl)piperidin-1-yl)methyl)-3-((S)-oxetan-2-ylmethyl)-3H-imidazo[4,5-b]pyridine-5-carboxylic acid] | 1.72 | 114 | 26100
O=C(O)c1ccc2nc(CN3CCN(c4cccc5c4O[C@@H](c4ccc(Cl)cc4F)CO5)CC3)n(C[C@@H]3CCO3)c2c1 [Example 14, 2-((4-((S)-3-(4-Chloro-2-fluorophenyl)-2,3-dihydrobenzo[b][1,4]dioxan-5-yl)piperazin-1-yl)methyl)-1-(((S)-oxetan-2-yl)methyl)-1H-benzo[d]imidazole-6-carboxylic acid] | 1.79 | 104 | 
O=C(O)c1ccc2nc(CN3CCC(c4cccc5c4OCC(c4nc6ccccc6s4)O5)CC3)n(C[C@@H]3CCO3)c2c1 (stereo partly drawn) [Example 9, 2-((4-(2-(Benzo[d]thiazol-2-yl)-2,3-dihydrobenzo[b][1,4]dioxan-5-yl)piperidin-1-yl)methyl)-1-(((S)-oxetan-2-yl)methyl)-1H-benzo[d]imidazole-6-carboxylic acid] | 2.05 | 104 | 
O=C(O)c1ccc2nc(CN3CCC(c4cccc5c4OC(c4nc6ccccc6s4)CO5)CC3)n(C[C@@H]3CCO3)c2c1 (stereo partly drawn) [Example 1, 2-((4-(3-(Benzo[d]thiazol-2-yl)-2,3-dihydrobenzo[b][1,4]dioxan-5-yl)piperidin-1-yl)methyl)-1-(((S)-oxetan-2-yl)methyl)-1H-benzo[d]imidazole-6-carboxylic acid] | 0.56 | 109 | 
O=C(O)c1ccc2nc(CN3CCC(c4cccc5c4OC(c4ccc(Cl)cn4)CO5)CC3)n(C[C@@H]3CCO3)c2c1 (stereo partly drawn) [Example 13, 2-((4-(3-(5-Chloropyridin-2-yl)-2,3-dihydrobenzo[b][1,4]dioxan-5-yl)piperidin-1-yl)methyl)-1-(((S)-oxetan-2-yl)methyl)-1H-benzo[d]imidazole-6-carboxylic acid] | 1.76 | 108 | 
N#Cc1ccc(C2COc3cccc(C4CCN(Cc5nc6ccc(C(=O)O)cc6n5C[C@@H]5CCO5)CC4)c3O2)c(F)c1 (stereo partly drawn) [Example 16, 2-((4-(3-(4-Cyano-2-fluorophenyl)-2,3-dihydrobenzo[b][1,4]dioxan-5-yl)piperidin-1-yl)methyl)-1-((S)-oxetan-2-ylmethyl)-1H-benzo[d]imidazole-6-carboxylic acid] | 1.42 | 116 | 
O=C(O)c1ccc2nc(CN3CCC(c4cccc5c4OC[C@H](c4nc6ccccc6s4)O5)CC3)n(C[C@@H]3CCO3)c2c1 [Example 10, 2-((4-((R)-2-(Benzo[d]thiazol-2-yl)-2,3-dihydrobenzo[b][1,4]dioxan-5-yl)piperidin-1-yl)methyl)-1-(((S)-oxetan-2-yl)methyl)-1H-benzo[d]imidazole-6-carboxylic acid] | 1.19 | 103 | 
